Measurements taken from patent US9540325B2, “N1-cyclic amine-N5-substituted phenyl biguanide derivatives, methods of preparing the same and pharmaceutical composition comprising the same” (Immunomet Therapeutics, Inc., priority 2011, dated 2017).

Assays:
[1] = Solubility in water of hydrochloride and acetate salts; format: physicochemical; conditions: room temperature
Protocol: The solubilities in water of the hydrochlorides prepared in Examples 26, 27, 32, 33, 48, 49, 53 and 54, and the solubilities in water of the acetates prepared in Examples 70 to 77, were compared.
The experimental conditions and methods are described, as follows.
1) 1 ml of distilled water is added to a container including 5 mg of salt at room temperature.
2) The resulting mixture is stirred for 10 minutes, and then kept at room temperature for 1 hour.
3) Undissolved residual salt is recovered and weighed.
4) The ratio of the amount of the recovered salt and the amount of the dissolved salt is calculated.
5) Operations 1) to 4) are repeatedly performed with increasing amount (i.e., 10, 15, 20, 25 and 30 mg) of salt.
The experimental procedures were performed for each of the hydrochlorides of Examples 26, 27, 32, 33, 48, 49, 53 and 54 and the acetates of Examples 70 to 77. The comparative solubilities obtained using the hydrochlorides of Examples 26, 27, 32, 33, 48, 49, 53 and 54 and the acetates of Examples 70 to 77 are listed in the following Table 1.

AMPKα = experiment: Measurement of AMPK activation effect (AMPKα Thr172 phosphorylation immunoassay) in MCF7 cells; format: cell-based, human; conditions: 24 hours; for AMPK activation effect at 10 μM (%) / AMPK activation effect at 50 μM (%): relative to untreated cells; for AMPK activation effect AC150: concentration at which AMPK activation reached 150%
In short: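 MCF7 cells in DMEM/10% FBS were treated 24 h with derivatives at 5, 10 and 50 μM (metformin hydrochloride control, 0.05–10 mM). AMPKα Thr172 phosphorylation was measured by immunoassay on 20 μg lysate. AC150 (concentration giving 150% activation) came from concentration–response curves, with activation also reported at fixed concentrations.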

HCT116 cells = experiment: Measurement of effect of inhibiting cancer cell proliferation (MTT); format: cell-based, human; conditions: for inhibition at 100 µM: HCT-116, 100 μM, read-out: Cell Growth Inhibition (%) at 100 μM
In short: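 HCT116 cells (~5,000/well, DMEM with 10% FBS) treated 48 h with compound at 0.39–100 μM, metformin hydrochloride control at 0.1–25 mM. Viability by MTT (3 h, formazan in DMSO, A560) relative to untreated wells; GIC50 from the viability curve, also viability at 100 μM.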

[2] = content 5 mg/1 ml distilled water
[3] = content 10 mg/1 ml distilled water
[4] = content 15 mg/1 ml distilled water
[5] = content 20 mg/1 ml distilled water
[6] = content 25 mg/1 ml distilled water
[7] = content 30 mg/1 ml distilled water

| Solubility in water (%), hydrochloride salt [1, 2] [%] | GI50 (HCT116 cells; Homo sapiens, HCT-116, 48 h) [µM] | melting point [°C] | Solubility in water (%), acetate salt [1, 2] [%] | Solubility in water (%), acetate salt [1, 3] [%] | Solubility in water (%), acetate salt [1, 4] [%] | Solubility in water (%), acetate salt [1, 5] [%] | Solubility in water (%), acetate salt [1, 6] [%] | Solubility in water (%), acetate salt [1, 7] [%] | GI50 (HCT116 cells; 48 hours) [µM] | SMILES | AMPK activation effect at 10 μM (%) (AMPKα) | AMPK activation effect at 50 μM (%) (AMPKα) | AMPK activation effect AC150 (AMPKα) [µM] | inhibition at 100 µM (HCT116 cells; Homo sapiens, 48 hours) [%] |
| --- | --- | --- | --- | --- | --- | --- | --- | --- | --- | --- | --- | --- | --- | --- |
| 50 | 23.6 |  |  |  |  |  |  |  |  | Cl.N=C(NC(=N)N1CCCC1)Nc1ccc(OC(F)(F)F)cc1 [Example 32, N1-pyrrolidine-N5-(4-trifluoromethoxy)phenyl biguanide hydrochloride] | 204 | 680 | 5.1 | 97.6 |
| 50 | 7.9 | 277.3 |  |  |  |  |  |  |  | Cl.N=C(NC(=N)N1CCCCC1)Nc1ccc(OC(F)(F)F)cc1 [Example 33, N1-piperidine-N5-(4-trifluoromethoxy)phenyl biguanide hydrochloride] | 538 |  | 1.4 | 97.9 |
| 80 | 9.3 | 253 to 254 |  |  |  |  |  |  |  | Cl.N=C(NC(=N)N1CCCC1)Nc1ccc(C(F)(F)F)c(F)c1 [Example 48, N1-pyrrolidine-N5-(3-fluoro-4-trifluoromethyl)phenyl biguanide hydrochloride] | 299 |  | 2.5 | 101 |
|  | 3.6 | 208 to 209 |  |  |  |  |  |  |  | Cl.N=C(NC(=N)N1CCCCC1)Nc1cc(Cl)cc(OC(F)(F)F)c1 [Example 65, N1-piperidine-N5-(3-chloro-5-trifluoromethoxy)phenyl biguanide hydrochloride] |  |  | 5.0 | 97.3 |
|  | 6.8 | 241 to 242 |  |  |  |  |  |  |  | Cl.N=C(NC(=N)N1CCCC1)Nc1cc(Br)cc(OC(F)(F)F)c1 [Example 66, N1-pyrrolidine-N5-(3-bromo-5-trifluoromethoxy)phenyl biguanide hydrochloride] | 521 |  | 5.0 | 97.6 |
|  | 2.9 | 205 to 207 |  |  |  |  |  |  |  | Cl.N=C(NC(=N)N1CCCCC1)Nc1cc(Br)cc(OC(F)(F)F)c1 [Example 67, N1-piperidine-N5-(3-bromo-5-trifluoromethoxy)phenyl biguanide hydrochloride] |  |  | 5.0 | 97.1 |
|  |  |  | 100 | 100 | 100 | 100 | 100 | 50 |  | N=C(NC(=N)N1CCCC1)Nc1ccc(OC(F)(F)F)cc1 [Example 72, N1-pyrrolidine-N5-(4-trifluoromethoxy)phenyl biguanide acetate] | 186 | 938 | 4.6 |  |
|  |  |  | 100 | 100 | 100 | 20 |  |  |  | N=C(NC(=N)N1CCCCC1)Nc1ccc(OC(F)(F)F)cc1 [Example 73, N1-piperidine-N5-(4-trifluoromethoxy)phenyl biguanide acetate] | 270 | 747 | 0.3 |  |
|  |  |  | 100 | 100 | 70 |  |  |  |  | N=C(NC(=N)N1CCCC1)Nc1ccc(OC(F)(F)F)c(F)c1 [Example 76, N1-pyrrolidine-N5-(3-fluoro-4-trifluoromethoxy)phenyl biguanide acetate] | 341 |  | 1.3 |  |
|  |  |  | 100 | 50 |  |  |  |  |  | N=C(NC(=N)N1CCCCC1)Nc1ccc(OC(F)(F)F)c(F)c1 [Example 77, N1-piperidine-N5-(3-fluoro-4-trifluoromethoxy)phenyl biguanide acetate] |  |  |  |  |

The remaining lines, values behind:

| SMILES | Solubility in water (%), hydrochloride salt [1, 2] [%] | GI50 (HCT116 cells; Homo sapiens, HCT-116, 48 h) [µM] | melting point [°C] | Solubility in water (%), acetate salt [1, 2] [%] | Solubility in water (%), acetate salt [1, 3] [%] | Solubility in water (%), acetate salt [1, 4] [%] | Solubility in water (%), acetate salt [1, 5] [%] | Solubility in water (%), acetate salt [1, 6] [%] | Solubility in water (%), acetate salt [1, 7] [%] | GI50 (HCT116 cells; 48 hours) [µM] | AMPK activation effect at 10 μM (%) (AMPKα) | AMPK activation effect at 50 μM (%) (AMPKα) | AMPK activation effect AC150 (AMPKα) [µM] | inhibition at 100 µM (HCT116 cells; Homo sapiens, 48 hours) [%] |
| --- | --- | --- | --- | --- | --- | --- | --- | --- | --- | --- | --- | --- | --- | --- |
| Cl.N=C(NC(=N)N1CCCCC1)Nc1ccc(C(F)(F)F)c(F)c1 [Example 49, N1-piperidine-N5-(3-fluoro-4-trifluoromethyl)phenyl biguanide hydrochloride] | 20 | 5.2 | 263 to 264 |  |  |  |  |  |  |  | 258 |  | 2.7 | 96.5 |
| Cl.N=C(NC(=N)N1CCCCC1)Nc1ccc(Cl)c(Cl)c1 [Example 64, N1-piperidine-N5-(3,4-dichloro)phenyl biguanide hydrochloride] |  | 6.4 | 267 to 269 |  |  |  |  |  |  |  | 442 |  | 0.7 | 101 |
| Cl.N=C(NC(=N)N1CCCCC1)Nc1cc(F)c(F)c(F)c1 [Example 68, N1-piperidine-N5-(3,4,5-trifluoro)phenyl biguanide hydrochloride] |  | 13.8 | 248 to 249 |  |  |  |  |  |  |  | 197 |  | 7.2 | 97.6 |
| Cl.N=C(NC(=N)N1CCCCC1)Nc1c(F)cc(F)cc1F [Example 69, N1-piperidine-N5-(2,4,6-trifluoro)phenyl biguanide hydrochloride] |  | > 100 | 243 to 244 |  |  |  |  |  |  |  | 131 | 156 | 42.0 | 21.5 |
| N=C(NC(=N)N1CCCC1)Nc1ccc(C(F)(F)F)cc1 [Example 70, N1-pyrrolidine-N5-(4-trifluoromethyl)phenyl biguanide acetate] |  |  |  | 100 | 100 | 100 | 100 | 100 | 50 | 5.2 | 554 |  | 2.0 |  |
| N=C(NC(=N)N1CCCCC1)Nc1ccc(C(F)(F)F)cc1 [Example 71, N1-piperidine-N5-(4-trifluoromethyl)phenyl biguanide acetate] |  |  |  | 100 | 50 |  |  |  |  |  | 313 |  | 2.3 |  |
| N=C(NC(=N)N1CCCC1)Nc1ccc(C(F)(F)F)c(F)c1 [Example 74, N1-pyrrolidine-N5-(3-fluoro-4-trifluoromethyl)phenyl biguanide acetate] |  |  |  | 100 | 100 | 100 | 50 |  |  |  | 461 |  | 3.4 |  |
| N=C(NC(=N)N1CCCCC1)Nc1ccc(C(F)(F)F)c(F)c1 [Example 75, N1-piperidine-N5-(3-fluoro-4-trifluoromethyl)phenyl biguanide acetate] |  |  |  | 70 |  |  |  |  |  |  | 710 |  | 2.0 |  |
